Test results taken from patent US10800788B2, “4-(aryl)-N-(3-alkoxyfuro[2,3-b]pyrazin-2-yl)-piperazine-1-carboxamide derivative and antiproliferative effect thereof” (Dongguk University Industry-Academic Cooperation Foundation, priority 2016, dated 2020).

Key:
HT29 = test: Cell growth inhibition experiment (SRB), HT29; assay type: cell-based, human; settings: Homo sapiens, HT-29, 96 h, 96 hours incubation, read-out: IC50 (μM) for cancer cell line HT29
Procedure: (§1) The 4-(aryl)-N-(3-alkoxyfuro[2,3-b]pyrazin-2-yl)-piperazine-1-carboxamide derivative compounds synthesized according to Examples 1 to 60 of the present invention were treated with various human tissue-derived cancer cell lines cultured according to Experimental Example 1, and thus the inhibitory effect of the growth of human cancer cells was confirmed. The cell growth inhibition experiment was conducted using the sulforhodamine B (SRB) technique (Skehan et al., J. National Cancer Institute, 1990, 82: 1107-1112). Specifically, each cell line was seeded in a 96-well plate at a density of 2 to 3×10^3 cells/well, cultured overnight, and then treated with the 4-(aryl)-N-(3-alkoxyfuro[2,3-b]pyrazin-2-yl)-piperazine-1-carboxamide derivative compounds of the present invention. The experiment was repeated 3 times for each compound. Cells treated with each compound were additionally incubated for 96 hours, fixed with 10% trichloroacetic acid (TCA), and then left at 4° C. for 1 hour. The resultant was washed 3 times with distilled water. Thereafter, each cell was treated with 0.4% sulforhodamine B dissolved in 1% acetic acid, stained for 30 minutes, and then washed 4 times with 1% acetic acid. The resultant was dried in the air. After shaking the resultant in Tris solution (10 mM) for 5 minutes, the absorbance was measured at 530 nm using a Benchmark Plus Microplate reader (Bio-Rad Laboratories, Hercules, Calif.).
(§2) In order to convert the OD530 value to the number of viable cells per each well, the measured OD530 value was compared to the standard OD530-vs.-cell number curve of each cell line. The percent survival was calculated using the following formula: % survival=Nlive cells(test)/Nlive cells(control)×100

[1] = system: HN31 (head and neck cancer) cell line; test: Cell growth inhibition experiment (SRB), HN31; assay type: cell-based, human; settings: Homo sapiens, 96 h, 96 hours incubation
Procedure: (§3) The cell lines below were used in order to confirm the efficacy of the compounds synthesized in Examples 1 to 60. Human PANC-1 (pancreatic cancer) and MDA-MB-231 (breast cancer) cell lines were obtained from the American Type Culture Collection (ATCC; Manassas, Va.); and HN31 (head and neck cancer) and UMRC2 (kidney cancer) cell lines were secured from the United States National Institutes of Health (Bethesda, Md.). The MDA-MB-231, UMRC2, HN31, and PANC-1 cell lines were cultured in Dulbecco modified Eagle medium (DMEM; Invitrogen, Carlsbad, Calif.) containing FBS (10%), HEPES (10 mM), penicillin (100 U/mL), and streptomycin (100 μg/mL). All cell lines were cultured in an incubator (37° C., 5% CO2).
as §1, §2

[2] = system: UMRC2 (kidney cancer) cell line; test: Cell growth inhibition experiment (SRB), UMRC2; assay type: cell-based, human; settings: Homo sapiens, UMRC2, 96 h, 96 hours incubation
Procedure: as §3, §1, §2

HUVEC = test: Cell growth inhibition experiment (SRB), HUVEC; assay type: cell-based, human; settings: Homo sapiens, HUVEC, 96 h, 96 hours incubation, read-out: IC50 (μM) […]
Procedure: as §1, §2

[3] = system: PANC-1 (pancreatic cancer) cell line; test: Cell growth inhibition experiment (SRB), PANC-1; assay type: cell-based; settings: Homo sapiens, PANC-1, 96 h, 96 hours incubation
Procedure: as §3, §1, §2

A549 = test: Cell growth inhibition experiment (SRB), A549; assay type: cell-based; settings: Homo sapiens, A549, 96 h, 96 hours incubation, read-out: IC50 (μM) for cancer cell line A549
Procedure: as §1, §2

[4] = system: MDA-MB-231 (breast cancer) cell line; test: Cell growth inhibition experiment (SRB), MDA-MB-231; assay type: cell-based, human; settings: Homo sapiens, MDA-MB-231, 96 h, 96 hours incubation
Procedure: as §3, §1, §2

SK-OV-3 = test: Cell growth inhibition experiment (SRB), SK-OV-3; assay type: cell-based, human; settings: Homo sapiens, SK-OV-3, 96 h, 96 hours incubation, read-out: IC50 (μM) for cancer cell line SK-OV-3
Procedure: as §1, §2

HEK293 = test: Cell growth inhibition experiment (SRB), HEK293; assay type: cell-based, human; settings: Homo sapiens, HEK293, 96 h, 96 hours incubation, read-out: IC50 (μM) for cancer cell line HEK293
Procedure: as §1, §2

| SMILES | IC50 (HT29) [µM] | IC50 [1] [µM] | IC50 [2] [µM] | IC50 [3] [µM] | IC50 (A549) [µM] | IC50 [4] [µM] | IC50 (SK-OV-3) [µM] | IC50 (HUVEC) [µM] | IC50 (HEK293) [µM] |
| --- | --- | --- | --- | --- | --- | --- | --- | --- | --- |
| CCOc1nc2oc(C)cc2nc1NC(=O)N1CCN(c2cc(C)cc(C)c2)CC1 [Example 35, 4-(3,5-Dimethylphenyl)-N-(3-ethoxy-6-methylfuro[2,3-b]pyrazin-2-yl)piperazine-1-carboxamide] | < 2.5 | 0.44 | 0.54 | 0.43 | 1.02 | 0.24 | < 2.5 | < 2.5 | 1.12 |
| CCOc1nc2oc(C)cc2nc1NC(=O)N1CCN(c2cc(C)cc(F)c2)CC1 [Example 36, N-(3-Ethoxy-6-methylfuro[2,3-b]pyrazin-2-yl)-4-(3-fluoro-5-methylphenyl)piperazine-1-carboxamide] | 1.12 | 0.36 | 0.36 | 0.12 | 1.32 | 0.45 | 1.12 | 1.12 | 1.32 |
| CCOc1nc2oc(C)cc2nc1NC(=O)N1CCN(c2cc(F)cc(F)c2)CC1 [Example 37, 4-(3,5-Difluorophenyl)-N-(3-ethoxy-6-methylfuro[2,3-b]pyrazin-2-yl)piperazine-1-carboxamide] | 1.28 | 0.68 | 0.36 | 0.51 | 0.44 | 0.15 | 2.13 | 1.25 | 1.63 |
| CCOc1nc2oc(C)cc2nc1NC(=O)N1CCN(c2cc(C(F)(F)F)cc(C(F)(F)F)c2)CC1 [Example 39, 4-(3,5-Bis(trifluoromethyl)phenyl)-N-(3-ethoxy-6-methylfuro[2,3-b]pyrazin-2-yl)piperazine-1-carboxamide] | < 2.5 | < 2.5 | < 2.5 | < 2.5 | < 2.5 | < 2.5 | < 2.5 | < 2.5 | < 2.5 |
| CCOc1nc2oc(C)cc2nc1NC(=O)N1CCN(c2cccc(OC(F)(F)F)c2)CC1 [Example 40, N-(3-Ethoxy-6-methylfuro[2,3-b]pyrazin-2-yl)-4-(3-(trifluoromethoxy)phenyl)piperazine-1-carboxamide] | < 2.5 | < 2.5 | < 2.5 | < 2.5 | < 2.5 | < 2.5 | < 2.5 | < 2.5 | < 2.5 |

Further lines, with some results ahead:

| IC50 (HT29) [µM] | IC50 [1] [µM] | IC50 [2] [µM] | IC50 [3] [µM] | IC50 (A549) [µM] | IC50 [4] [µM] | IC50 (SK-OV-3) [µM] | SMILES | IC50 (HUVEC) [µM] | IC50 (HEK293) [µM] |
| --- | --- | --- | --- | --- | --- | --- | --- | --- | --- |
| < 2.5 | 0.31 | 0.21 | 0.24 | 0.41 | 0.15 | < 2.5 | CCOc1nc2oc(C)cc2nc1NC(=O)N1CCN(c2cc(F)cc(OC)c2)CC1 [Example 33, N-(3-Ethoxy-6-methylfuro[2,3-b]pyrazin-2-yl)-4-(3-fluoro-5-methoxyphenyl)piperazine-1-carboxamide] | < 2.5 | 0.51 |
| < 2.5 | 1.02 | 1.21 | 0.44 | 0.68 | 0.36 | < 2.5 | CCOc1nc2oc(C)cc2nc1NC(=O)N1CCN(c2cc(OC)cc(OCCN(C)C)c2)CC1 [Example 34, 4-(3-(2-(Dimethylamino)ethoxy)-5-methoxyphenyl)-N-(3-ethoxy-6-methylfuro[2,3-b]pyrazin-2-yl)piperazine-1-carboxamide] | < 2.5 | 0.44 |
| < 2.5 | < 2.5 | < 2.5 | < 2.5 | < 2.5 | < 2.5 | < 2.5 | CCOc1nc2oc(C)cc2nc1NC(=O)N1CCN(c2cc(F)cc(C(F)(F)F)c2)CC1 [Example 38, N-(3-Ethoxy-6-methylfuro[2,3-b]pyrazin-2-yl)-4-(3-fluoro-5-(trifluoromethyl)phenyl)piperazine-1-carboxamide] | < 2.5 | < 2.5 |
